In patent US20150087037A1, “FERMENTATION PROCESS” (LanzaTech New Zealand Limited, priority 2013, published 2015):

What was measured:
[1] = tested on: Ketol-acid reductoisomerase IlvC; conditions: reference in the literature; cited from earlier work
[2] = tested on: C. autoethanogenum DSM23693; assay: Addition of other known inhibitor to a fermentation optimized for 2,3-Butanediol production; format: cell-based, Clostridium autoethanogenum; conditions: single addition, 15 mM, stable reactor, day 13.2, FIG. 13
Procedure: Fermentations with C. autoethanogenum DSM23693 were carried out in 1.5 L bioreactors at 37° C. The media was prepared according to Table 1. To achieve anaerobicity the reactor vessel was sparged with nitrogen. Prior to inoculation, the gas was switched to either steel mill gas containing H2 (3%), N2 (30%), CO (47%) and CO2 (20%) or pure gases (50% CO, 18-40% CO2, with the balance N2). The gas flow was initially set at 67 ml/min/L, increasing to 200 ml/min during mid-exponential phase, while the agitation was increased from 200 rpm to 800. Na2S was dosed into the bioreactor at 0.25 ml/hr. Once the OD600 reached 1.5, the bioreactor was switched to a continuous mode at a dilution rate of 2.0-1.6 d-l and a bacterial dilution rate of 0.9-0.6 d-l. During continuous mode gas and agitation were adjusted to 900-950 rpm and 800-900 ml/min. Na2S was increased to 1.0 ml/hr.
Liquid culture samples were taken at differing intervals over the duration of the fermentation. These samples were used to establish the optical density at 600 nm (spectrophotometer) and the level of substrates and products (high performance liquid chromatography—HPLC). HPLC was routinely used to quantify the level of acetate, ethanol and 2,3-butanediol. The input and output gas compositions were analysed using a gas chromatographer (GC), allowing measurement of CO and H2 consumption and CO2 production by the culture. […]

**Q.** Which results are given for `CCC(C)(O)C(=O)O` (stereo not drawn) [2-hydroxy-2-methylbutyric acid]?
**A.** inhibition of ilvC [1]: known inhibitor; ethanol:2,3-BDO ratio [2]: drop; production of 2,3-Butanediol [2]: increase
